Experimental findings from patent US20070270421A1, “Novel pyridine Derivative and Pyrimidine Derivative (1)” (priority 2004, published 2007) are described below.

Some results are limits rather than exact numbers.

In this assay the target is T1, HGFR (His6-HGFR cytoplasmic domain) (Homo sapiens, UniProt P08581).
T1 construct: made in house; host or cells: Spodoptera frugiperda Sf9 insect cells (baculovirus, pFastBac-HT)
As to the kind of experiment: Inhibitory activity against HGFR tyrosine kinase activity (HTRF). The assay is classed as biochemical. Conditions: biotin-poly(GT), ATP, 30° C. 10 min, read-out: IC50 (concentration necessary to inhibit HGFR kinase activity by 50%). The essentials:
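Baculovirus/Sf9-expressed N-terminal His6-tagged HGFR cytoplasmic domain (from Lys974), Ni-NTA purified, phosphorylated biotin-poly(GT) in Hepes pH 7.4 with MgCl2/MnCl2. ATP added as 4 μM solution; 10 min at 30° C., stopped with EDTA. Phosphotyrosine product detected by HTRF.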
On the technique in general: In TR-FRET formats the signal depends on donor and acceptor labels being close together.

T1 sequence (P08581 956-1390 limits assumed): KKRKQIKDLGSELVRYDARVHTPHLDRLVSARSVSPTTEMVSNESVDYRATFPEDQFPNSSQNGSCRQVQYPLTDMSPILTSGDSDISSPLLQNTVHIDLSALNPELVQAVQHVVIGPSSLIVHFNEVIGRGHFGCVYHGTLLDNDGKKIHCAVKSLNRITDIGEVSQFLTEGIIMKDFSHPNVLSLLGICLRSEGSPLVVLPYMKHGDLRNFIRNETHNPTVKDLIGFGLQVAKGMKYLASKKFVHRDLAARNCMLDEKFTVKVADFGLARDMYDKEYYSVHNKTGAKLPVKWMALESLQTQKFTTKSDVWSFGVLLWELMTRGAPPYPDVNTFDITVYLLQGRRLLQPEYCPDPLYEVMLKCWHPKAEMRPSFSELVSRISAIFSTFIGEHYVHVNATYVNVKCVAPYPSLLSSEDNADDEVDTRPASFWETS

Consider `CN1CCC(N2CCN(C(=O)Nc3cc(Oc4ccc(NC(=S)NC(=O)Cc5ccc(F)cc5)cc4F)ncn3)CC2)CC1` [Example 193, 4-(2-Fluoro-4-{3-[2-(4-fluorophenyl)acetyl]thioureido}phenoxy)-6-{[4-(1-methylpiperidin-4-yl)piperazin-1-yl]carbonylamino}pyrimidine], for which the IC50 is 52 nM.
Under `CC(=O)N1CCC(N(C)C(=O)Nc2cc(Oc3ccc(NC(=S)NC(=O)Cc4ccc(F)cc4)cc3F)ccn2)CC1` [Example 301, 1-(1-Acetylpiperidin-4-yl)-3-[4-(2-fluoro-4-{3-[2-(4-fluorophenyl)acetyl]thioureido}phenoxy)pyridin-2-yl]-1-methylurea] stands 28 nM.
Under `CN(C)CCN1CCN(C(=O)Nc2cc(Oc3ccc(NC(=O)NC(=O)Cc4ccc(F)cc4)cc3F)ccn2)CC1` [Example 362, 2-{[4-(2-Dimethylaminoethyl)piperazin-1-yl]carbonylamino}-4-(2-fluoro-4-{3-[2-(4-fluorophenyl)acetyl]ureido}phenoxy)pyridine] stands 130 nM; under `O=C(Cc1ccc(F)cc1)NC(=S)Nc1ccc(Oc2ccnc(NC(=O)N3CCN(CCN4CCC4)CC3)c2)cc1` [Example 398, 4-[2-(Azetidin-1-yl)ethyl]piperazine-1-carboxylic acid [4-(4-{3-[2-(4-fluorophenyl)acetyl]thioureido}phenoxy)pyridin-2-yl]amide], 47 nM.
Under `CN(C)[C@@H]1CCN(C(=O)Nc2cc(Oc3ccc(NC(=S)NC(=O)Cc4ccccc4)cc3F)ccn2)C1` [Example 245, 2-{[(3R)-3-Dimethylaminopyrrolidin-1-yl]carbonylamino}-4-{2-fluoro-4-[3-(2-phenylacetyl)thioureido]phenoxy}pyridine] stands 81 nM; under `O=C(Cc1ccc(F)cc1)NC(=O)Nc1ccc(Oc2ccnc(NC(=O)N3CCC(N4CCC4)CC3)c2)cc1F` [Example 178, 4-(Azetidin-1-yl)piperidine-1-carboxylic acid [4-(3-fluoro-4-{3-[2-(4-fluorophenyl)acetyl]ureido}phenoxy)pyridin-2-yl]amide], 63 nM; under `CN(C)[C@H]1CCN(C(=O)Nc2cc(Oc3ccc(NC(=O)NC(=O)Cc4ccccc4)cc3F)ccn2)C1` [Example 250, 2-{[(3S)-3-Dimethylaminopyrrolidin-1-yl]carbonylamino}-4-{2-fluoro-4-[3-(2-phenylacetyl)ureido]phenoxy}pyridine], 68 nM.
Regarding `CC(=O)N1CCC(N(C)C(=O)Nc2cc(Oc3ccc(NC(=S)NC(=O)Cc4ccc(F)cc4)cc3F)ncn2)CC1` [Example 314, 1-(1-Acetylpiperidin-4-yl)-3-[6-(2-fluoro-4-{3-[2-(4-fluorophenyl)acetyl]thioureido}phenoxy)pyrimidin-4-yl]-1-methylurea], the IC50 came to 31 nM.
Turning to `CN1CCC(N2CCN(C(=O)Nc3cc(Oc4ccc(NC(=O)NC(=O)Cc5ccc(F)cc5)cc4F)ccn3)CC2)CC1` [Example 345, 4-(2-Fluoro-4-{3-[2-(4-fluorophenyl)acetyl]ureido}phenoxy)-2-{[4-(1-methylpiperidin-4-yl)piperazin-1-yl]carbonylamino}pyridine], the IC50 was determined as 120 nM.
With `CN1CCN(C2CCN(C(=O)Nc3cc(Oc4ccc(NC(=S)NC(=O)Cc5ccc(F)cc5)cc4F)ncn3)CC2)CC1` [Example 192, 4-(2-Fluoro-4-{3-[2-(4-fluorophenyl)acetyl]thioureido}phenoxy)-6-{[4-(1-methylpiperazin-4-yl)piperidin-1-yl]carbonylamino}pyrimidine] the figure was 40 nM; with `CCN(CC)CCCN(C)C(=O)Nc1cc(Oc2ccc(NC(=O)NC(=O)Cc3ccccc3)cc2F)ccn1` [Example 49, 1-(3-Diethylaminopropyl)-3-{4-[2-fluoro-4-(3-phenylacetylureido)phenoxy]pyridin-2-yl}-1-methylurea], 210 nM; with `O=C(Cc1ccc(F)cc1)NC(=S)Nc1ccc(Oc2ccnc(NC(=O)N3CCC(CN4CCC4)CC3)c2)cc1` [Example 394, 4-(Azetidin-1-ylmethyl)piperidine-1-carboxylic acid [4-(4-{3-[2-(4-fluorophenyl)acetyl]thioureido}phenoxy)pyridin-2-yl]amide], 45 nM.
With `CN(C)CCN1CCC(N(C)C(=O)Nc2cc(Oc3ccc(NC(=O)NC(=O)Cc4ccc(F)cc4)cc3)ccn2)CC1` [Example 354, 1-[1-(2-Dimethylaminoethyl)piperidin-4-yl]-3-[4-(4-{3-[2-(4-fluorophenyl)acetyl]ureido}phenoxy)pyridin-2-yl]-1-methylurea] the figure was 160 nM; with `CN1CC(N2CCN(C(=O)Nc3cc(Oc4ccc(NC(=S)NC(=O)Cc5ccccc5)cc4F)ccn3)CC2)C1` [Example 381], 83 nM.
With `O=C(CC(=O)Nc1ccc(Oc2ccnc(NC(=O)N3CCOCC3)c2)cc1)Nc1ccc(F)cc1` [Example 71, N-(4-Fluorophenyl)-N′-(4-{2-[(morpholine-4-carbonyl)amino]pyridin-4-yloxy}phenyl)malonamide] the figure was 25 nM.
For `CN1CCC(N2CCN(C(=O)Nc3cc(Oc4ccc(NC(=S)NC(=O)Cc5ccccc5)cc4F)ccn3)CC2)CC1` [Example 326, 4-{2-Fluoro-4-[3-(2-phenylacetyl)thioureido]phenoxy}-2-{[4-(1-methylpiperidin-4-yl)piperazin-1-yl]carbonylamino}pyridine], the IC50 worked out at 130 nM.
For the compound `CN1CC(N2CCC(N(C)C(=O)Nc3cc(Oc4ccc(NC(=S)NC(=O)Cc5ccc(F)cc5)cc4F)ncn3)CC2)C1` [Example 391, 3-(6-{2-Fluoro-4-[3-(4-fluorophenyl)acetylthioureido]phenoxy}pyrimidin-4-yl)-1-methyl-1-[1-(1-methylazetidin-3-yl)piperidin-4-yl]urea], the IC50 stood at 83 nM.
Under `CN(C)C(=O)Nc1cc(Oc2ccc(NC(=O)NC(=O)Cc3ccccc3)c(F)c2)ccn1` [Example 54, 3-{4-[3-Fluoro-4-(3-phenylacetylureido)phenoxy]pyridin-2-yl}-1,1-dimethylurea] stands 43 nM.
Under `CN(C)C[C@H]1CCN(C(=O)Nc2cc(Oc3ccc(NC(=S)NC(=O)Cc4ccc(F)cc4)cc3F)ncn2)C1` [Example 209, 4-{[(3R)-3-(Dimethylaminomethyl)pyrrolidin-1-yl]carbonylamino}-6-(2-fluoro-4-{3-[2-(4-fluorophenyl)acetyl]thioureido}phenoxy)pyrimidine] stands 65 nM; under `O=C(Cc1ccccc1)NC(=O)Nc1ccc(Oc2ccnc(NC(=O)N3CCN(CCN4CCC4)CC3)c2)c(F)c1` [Example 387, 4-[2-(Azetidin-1-yl)ethyl]piperazine-1-carboxylic acid {4-[2-fluoro-4-(3-phenylacetylureido)phenoxy]pyridin-2-yl}amide], 120 nM; under `O=C(CC(=O)NC1CCCCCC1)Nc1ccc(Oc2ccnc(NC(=O)N3CCCC3)c2)c(F)c1` [Example 61, N-Cycloheptyl-N′-(3-fluoro-4-{2-[(pyrrolidine-1-carbonyl)amino]pyridin-4-yloxy}phenyl)malonamide], less than 30 nM.
Under `O=C(Cc1ccc(F)cc1)NC(=O)Nc1ccc(Oc2ccnc(NC(=O)N3CCN(CCN4CCC4)CC3)c2)cc1` [Example 389, 4-[2-(Azetidin-1-yl)ethyl]piperazine-1-carboxylic acid [4-(4-{3-[2-(4-fluorophenyl)acetyl]ureido}phenoxy)pyridin-2-yl]amide] stands 130 nM.
As for `O=C(Cc1ccc(F)cc1)NC(=S)Nc1ccc(Oc2cc(NC(=O)N3CCOCC3)ncn2)c(F)c1` [Example 4, Morpholine-4-carboxylic acid [6-[2-fluoro-4-{3-[2-(4-fluorophenyl)acetyl]thioureido}phenoxy)pyrimidin-4-yl]amide], the IC50 is 30 nM.
As to `CN(C)CC1CCN(C(=O)Nc2cc(Oc3ccc(NC(=S)NC(=O)Cc4ccc(F)cc4)cc3)ccn2)CC1` [Example 188, 2-{[4-(Dimethylaminomethyl)piperidin-1-yl]carbonylamino}-4-(4-{3-[2-(4-fluorophenyl)acetyl]thioureido}phenoxy)pyridine], the IC50 came out at 130 nM.
For the compound `CN1CCC[C@@H](N(C)C(=O)Nc2cc(Oc3ccc(NC(=S)NC(=O)Cc4ccc(F)cc4)cc3F)ncn2)C1` [Example 312, 3-[6-(2-Fluoro-4-{3-[2-(4-fluorophenyl)acetyl]thioureido}phenoxy)pyrimidin-4-yl]-1-methyl-1-[(3R)-1-methylpiperidin-3-yl]urea], the IC50 is 48 nM.
With `CN(C)CCN1CCN(C(=O)Nc2cc(Oc3ccc(NC(=O)NC(=O)Cc4ccccc4)cc3F)ccn2)CC1` [Example 364, 2-{[4-(2-Dimethylaminoethyl)piperazin-1-yl]carbonylamino}-4-{2-fluoro-4-[3-(2-phenylacetyl)ureido]phenoxy}pyridine], the IC50 was 97 nM.
Under `CC(C)C(=O)Nc1cc(Oc2ccc(NC(=O)CC(=O)Nc3ccc(F)cc3)c(F)c2)ccn1` [Example 76, N-(4-Fluorophenyl)-N′-[4-(2-isobutylylaminopyridin-4-yloxy)-2-fluorophenyl]malonamide] stands 100 nM; under `O=C(Cc1ccccc1)NC(=S)Nc1ccc(Oc2ccnc(NC(=O)N3CC(N4CCCC4)C3)c2)c(F)c1` [Example 261, 3-(Pyrrolidin-1-yl)azetidine-1-carboxylic acid {4-[2-fluoro-4-(3-phenylacetylthioureido)phenoxy]pyridin-2-yl}amide], 100 nM.
With `CN(C)CCN1CCN(C(=O)Nc2cc(Oc3ccc(NC(=S)NC(=O)Cc4ccc(F)cc4)cc3F)ncn2)CC1` [Example 181, 4-{[4-(2-Dimethylaminoethyl)piperazin-1-yl]carbonylamino}-6-(2-fluoro-4-{3-[2-(4-fluorophenyl)acetyl]thioureido}phenoxy)pyrimidine] the figure was 41 nM.
